Measured values from ChEMBL document CHEMBL3507680, “University of Dundee, Gates Library screen for HepG2 cell viability”.

Test: Human HepG2 cell viability assay in 384 well format
Type: toxicity, cell-based
Set-up: dose 125 nL, time 70.5 hour; cytotoxicity at 70.5 h: concentration not given beside the values
Conditions: HepG2 cells, read-out: Inhibition

| Structure (SMILES) | cytotoxicity at 70.5 h [%] |
| --- | --- |
| CN(C)c1ncccc1CNC(=O)N1CCN(C)c2ccccc2C1 | -8.8 |
| COc1cccc(N2CCC(CNC(=O)CN3CSCC3=O)C2)c1 (centres undefined) | -9.99 |
| CCCc1cc(NCCn2cccn2)n2ncnc2n1 | -6.07 |
| Cc1ncc(CN(C)C(=O)c2ccc(N3CCOCC3)c(F)c2)s1 | -6.71 |
| Cc1nn(C)c2ncc(S(=O)(=O)N3CCN4CCCC4C3)cc12 (centres undefined) | -7.68 |
| Cn1ccnc1COc1ccc(COC(=O)C2CCCO2)cc1 (centres undefined) | 3.75 |
| Cn1c(NC(=O)CNC(=O)C2CC2)nc2cc(Cl)ccc21 | -7.94 |
| Cc1nn(C)c2ncc(S(=O)(=O)N3CCCC(C)CC3)cc12 (centres undefined) | -8.46 |
| COc1cc(NC(=O)NC2CCCC2)ccc1N1CCOC1=O | -8.76 |
| OCc1cc2ccccc2nc1N1CCCC1 | -15.5 |
| COc1cc(NC(=O)NC2CCOCC2)ccc1N1CCOC1=O | 6.14 |
| CCC(=O)CNC(=O)CCn1nc2ccccn2c1=O | -1.88 |
| Cc1cc2c(cc1C)OC(C(=O)NCCNC(=O)C1CCCC1)C2 (centres undefined) | -6.43 |
| Cc1cc(N2CCN(c3nc4ccccc4cc3CO)CC2)nc(C)n1 | -9.44 |
| COc1c(CNCc2ccc(N3CCOCC3)nc2)c(C)nn1C | -5.76 |
| Cc1cccc(N(CCC(N)=O)C(=O)c2cc(-n3cccn3)ccn2)c1 | -12 |
| O=C(CCc1cccnc1)Nc1ccc(OCC2CCOCC2)cc1 | -10.4 |
| CNS(=O)(=O)CC1CCCN1C(=O)c1ccc(C)c(C)c1 (centres undefined) | 25.9 |
| CC(C)(C)c1csc(C2CCCCN2C(=O)CCn2cncn2)n1 (centres undefined) | -5.87 |
| Cn1cc(Br)cc(NC(=O)CC2CCC2)c1=O | -6.41 |
| Cc1cccc(N(CCC(N)=O)C(=O)c2ccnc(C)n2)c1 | -13.8 |
| COCCn1cc(NC(=O)NC(C)CCc2ccccc2)ccc1=O (centres undefined) | -7.43 |
| O=C(NCc1cccnc1)NCC(O)c1ccccc1C(F)(F)F (centres undefined) | -9.13 |
| Cc1cc(N2CCC(N(C)Cc3cc(=O)c(O)co3)CC2)nc(C)n1 | -7 |

| Structure (SMILES) | cytotoxicity at 70.5 h [%] |
| --- | --- |
| CN(Cc1cc(=O)c(O)co1)C1CCCN(c2ccccc2)C1 (centres undefined) | 24.6 |
| Cc1ccc(CN(C(=O)NCCNC(=O)c2cccnc2)C(C)C)o1 | 14.6 |
| Cc1csc(C2CCCCN2C(=O)CCCn2cccn2)n1 (centres undefined) | -11.4 |
| COC(=O)Cc1cccc(NC(=O)Cc2ccon2)c1 | 23.7 |
| Cc1csc(C2CCCCN2C(=O)CCCn2cncn2)n1 (centres undefined) | -9.21 |
| COc1cc(F)c(NC(=O)N(C)CCNC(=O)N(C)C)cc1F | -0.221 |
| Cc1nn(C)c(C)c1NC(=O)Nc1cccnc1N1CCCC1 | -7.71 |
| Cc1cc(S(=O)(=O)N(C)CC(N)=O)ccc1Br | -2.54 |
| CCC(C)NC(=O)c1cc(S(N)(=O)=O)c(Br)s1 (centres undefined) | -6.88 |
| CN(Cc1ccc2c(c1)OCCO2)Cn1nc(C(C)(C)C)ccc1=O | 12.7 |
| CN(C)S(=O)(=O)c1ccc2c(c1)N(Cc1ccccn1)CCC2 | -1.38 |
| CN(C)S(=O)(=O)c1ccc2c(c1)N(Cc1nccn1C)CCC2 | -6.79 |
| CN1CCN(c2ccnc3c(F)cc(Br)cc23)CC1 | 1.8 |
| O=C(CCc1cncc(F)c1)NS(=O)(=O)c1ccc(F)cc1F | 8.87 |
| Cc1cc(F)cc(S(=O)(=O)NC(=O)CCc2cncc(F)c2)c1 | -4.33 |
| COc1cc(F)c(NC(=O)N(C)Cc2cc(C)on2)cc1F | -5.99 |
| O=C(CN1CCC(OCC2CCCO2)CC1)NCC(F)(F)F (centres undefined) | -7.24 |
| CCNC(=O)CN1CCC(OCC2CCCO2)CC1 (centres undefined) | -6.63 |
| CCc1nnc2n1CC(CNCc1nnc(C(C)(C)C)o1)CC2 (centres undefined) | -6.78 |
| FC(F)(F)Cn1cc(NCc2cscn2)cn1 | -5.23 |
| CC(C)(C)n1cc(NCc2cscn2)cn1 | -6.29 |
| CC(C)c1nnc(NC(=O)N2CCN(C)CC2c2ccccc2)s1 (centres undefined) | 9.58 |
| CC(C)c1nnc(NC(=O)N2CCCC2c2ccncc2)s1 (centres undefined) | 20 |
| CN(C)C(CNC(=O)c1nc(N2CCOCC2)ncc1Cl)c1cccs1 (centres undefined) | -8.97 |

| Structure (SMILES) | cytotoxicity at 70.5 h [%] |
| --- | --- |
| CNC(=O)NC(=O)C(C)N1CCCc2cc(OC)ccc2C1 (centres undefined) | -13.9 |
| COc1cc(C(C)=O)ccc1SCC(=O)Nc1ccccn1 | 21.7 |
| COc1cc2c(cc1OC)S(=O)(=O)N(Cc1cc(C)on1)C2=O | -4.33 |
| COc1cc2c(cc1OC)S(=O)(=O)N(Cc1cnn(C)c1)C2=O | -22.9 |
| COc1ccc2c(c1)CCCN(C(C)C(=O)NC(C)C)C2 (centres undefined) | -15.7 |
| CCc1ocnc1C(=O)Nc1ccc2ccn(CCN(C)C)c2c1 | -13.2 |
| COc1cc(C(C)=O)ccc1SCC(=O)Nc1ccc(C)cn1 | -7.73 |
| O=C(c1coc2ccccc12)N1CCS(=O)(=O)CC1 | -5.47 |
| NC(=O)c1ccc(OCCC(=O)NC2CCc3c(F)cccc32)cc1 (centres undefined) | 21.4 |
| N#Cc1cccc(Cl)c1NCCc1n[nH]c(=O)[nH]1 | -3.93 |
| N#Cc1cccc(Cl)c1NCCCc1nc(=O)[nH][nH]1 | -9.76 |
| COCCN(Cc1cccc(C#N)c1)Cc1nnsc1Cl | 23 |
| CCCN(CCC)Cc1nnsc1Cl | -13.7 |
| O=C(NCCc1cccs1)N1CCC[C@H]1CO | -6.62 |
| CCN(Cc1nnsc1Cl)C(C)c1ccc(C#N)cc1 (centres undefined) | -3.23 |
| COc1ccc2c(c1)CCCN(C(C)C(=O)N1CCCC1)C2 (centres undefined) | -3.36 |
| CCC(C)(C)NC(=O)Cn1cc(C(N)=O)c(-c2ccccc2)n1 | -7.28 |
| Cc1ncc2c(n1)CN(CCOc1ccc3c(c1)CCC(=O)N3)CC2 | -6.43 |
| COc1ccc(C(=O)CCc2nc(C3CC3)no2)cc1 | -23.1 |
| COc1ccc(CCN2CC(n3nc(C)cc3C)C2)cc1 | -16.5 |
| Cc1nnnn1-c1cc(NCc2cccc(C#N)c2)ccc1F | -24.4 |
| COc1ccccc1N1CCN(Cc2cnc3c(c2)c(C)nn3C)CC1 | -11.4 |
| O=C(CCc1nc(C2CC2)no1)c1ccc(F)c(F)c1 | -17.2 |
| Cc1cccc2c1C(=O)NC(c1cnc(C3CCC3)s1)N2 (centres undefined) | -21.1 |

| Structure (SMILES) | cytotoxicity at 70.5 h [%] |
| --- | --- |
| CCS(=O)(=O)CCNC(=O)NC(C)c1ccc(C)s1 (centres undefined) | -8.94 |
| CCS(=O)(=O)CCNC(=O)NC(C)c1cc(C)sc1C (centres undefined) | -15.4 |
| CC(C)c1noc(CCNC(=O)N2CCN(c3cccs3)CC2)n1 | 40.3 |
| Cc1cc(C(=O)N(C)C)c2c(Br)cccc2n1 | -10.8 |
| CN(Cc1cccs1)S(=O)(=O)c1ccc(C(F)(F)F)nc1 | -20.9 |
| CN(CCn1cnnc1)S(=O)(=O)c1ccc(C(F)(F)F)nc1 | -15.6 |
| CN(CC(C)(C)C)S(=O)(=O)c1ccc(C(F)(F)F)nc1 | -25.1 |
| Cc1nn(C)c2ncc(CN3CCN(Cc4ccco4)CC3)cc12 | -18.7 |
| OC(COCc1ccco1)CN1CCC(Cn2cccn2)CC1 (centres undefined) | -14.1 |
| O=C(COCCOc1ccccc1)Nc1ccnn1CC1CCOC1 (centres undefined) | -21.2 |
| CS(=O)(=O)c1cccc(OCC(=O)N2CCCC2c2ccc[nH]2)c1 (centres undefined) | -7.78 |
| CN(Cc1cnn(C)c1)C(=O)c1cc2ccccc2c(=O)[nH]1 | -9.32 |
| COc1ccc(Cl)cc1NC(=O)CNc1ccn(CC(N)=O)n1 | 20.1 |
| CCC(=O)NC1CCCN(C(=O)Nc2cccc(COC(C)C)c2)C1 (centres undefined) | 7.06 |
| CC(C(=O)NCC1(c2c(F)cccc2F)CCCC1)S(C)(=O)=O (centres undefined) | -7.67 |
| O=C(c1[nH]c2ccc(Cl)cc2c1Cl)N1CCC2(CC1)OCCO2 | -0.999 |
| COc1ccc(CNC2CCN(c3ccccc3)C2)cc1O (centres undefined) | 19.7 |
| Nc1cc2c(nn1)CCN(C(=O)c1ccccc1Oc1cccnc1)C2 | -1.03 |
| CN(C)C1(CNC(=O)C/C=C/c2ccc(F)cc2)CCOCC1 | 22.9 |
| N#Cc1cc(S(N)(=O)=O)ccc1NC1CCc2c(F)cccc21 (centres undefined) | -10.4 |
| Cn1ncc2cnn(CC(O)COCc3ccccc3Cl)c2c1=O (centres undefined) | -5.81 |
| COCCN(Cc1ccc(F)cc1C#N)CC(F)(F)F | -10.5 |
| CCN(CCNC(=O)C1CCCN(C(C)=O)C1)c1ccccc1C (centres undefined) | -10.5 |
| c1cnnc(NCC2CN(CCn3cccn3)CCO2)c1 (centres undefined) | -2.81 |

| Structure (SMILES) | cytotoxicity at 70.5 h [%] |
| --- | --- |
| Cc1nnc(CN2CCCC2c2ccc(Cl)c(Cl)c2)o1 (centres undefined) | -1.84 |
| CC(C(=O)N(C)C1CCCCC1)S(=O)(=O)Cc1csc(-c2cccs2)n1 (centres undefined) | -7.18 |
| CC(C(=O)NCC1CCCCC1)S(=O)(=O)Cc1csc(-c2cccs2)n1 (centres undefined) | -9.36 |
| NC(=O)C(NC(=O)COC1CCCCC1)c1ccccc1 (centres undefined) | -4.15 |
| NC(=O)C(NC(=O)COC1CCCC1)c1ccccc1 (centres undefined) | -6.85 |
| CCN(CC)S(=O)(=O)N1CCCC1C(=O)N1CCSCC1 (centres undefined) | -2.8 |
| CN(C)S(=O)(=O)N1CCCC1C(=O)N1CCSCC1 (centres undefined) | 22.8 |
| O=C(c1ccc(O)nc1)N1CCN(C(=O)c2ccc(F)cc2F)CC1 | -7.11 |
| CCN1CCN(c2ccc(C(=O)NCc3cc(C)no3)cc2F)CC1 | -4.13 |
| CCn1nc2c(cc1=O)CN(CC(=O)Nc1nccs1)CC2 | -2.47 |
| CCn1nc2c(cc1=O)CN(CC(=O)N(C)c1nccs1)CC2 | 25.4 |
| CC(C)n1nc2c(cc1=O)CN(CC(=O)N(C)c1nccs1)CC2 | 6.02 |
| O=C(NC(C(=O)Nc1cc[nH]n1)c1ccccc1)C1CCC1 (centres undefined) | -0.966 |
| COc1cc(C)c(CNC(C)c2csc(C)n2)cc1OC (centres undefined) | -2.42 |
| CCC(O)CN1CCN(C(=O)c2csc(COC)n2)CC1 (centres undefined) | -3.48 |
| CN(CC1CN(CCn2cc(C#N)cn2)CCO1)c1cccnn1 (centres undefined) | -6.68 |
| OC(COCc1cccs1)Cn1cc(Cl)cn1 (centres undefined) | -1.21 |
| OC(COCc1cccs1)Cn1cc(Br)cn1 (centres undefined) | -1.14 |
| Cc1cnn(CCNCc2csc(COc3ccccc3)n2)c1 | -0.421 |
| Brc1cc(CNCc2nnc3n2CCC3)cs1 | -8.54 |
| O=C1NCCCCC1NCc1csc(-c2ccccn2)n1 (centres undefined) | -12.2 |
| NCC1CCCCN1C(=O)Cc1cccc(Br)c1 (centres undefined) | -4.6 |
| NCC1CCCCN1C(=O)Cc1cccc(Cl)c1 (centres undefined) | -6.28 |
